The values that follow come from US12606568B2, “SMARCA degraders and uses thereof” (Kymera Therapeutics, Inc., priority 2020, dated 2026).

This experiment deals with SMARCA2 (Homo sapiens, UniProt P51531). Description: SMARCA2 Western blot MV4-11 degradation. Format: cell-based. On the set-up: SMARCA2 and SMARCA4 protein degradation in MV4-11 cells; endogenous in cells; host or cells: MV4-11. The conditions noted are these: for Dmax: MV4-11, MV4-11 cells, read-out: SMARCA2 MSD MV411 degradation 24 h: average Dmax %; for Dmax / DC50: 24 h; for DC50 / SMARCA2 MSD MV411 degradation 24 h: average Dmax %: MV4-11 cells; for DC50: read-out: SMARCA2 MSD MV411 degradation 24 h: Mean external-Abs DC50. The procedure: Example 54. SMARCA2 and SMARCA 4 Western Blot MV4-11 Degradation
Cells were seeded into 6-well plates (MV4-11: 4×10^6 cells/well/1 ml) and 1 ml of 2× compound solution was added into the well to make the final concentration and the plates were mixed well and incubated for 24 hours (No cytotoxicity was observed). The cell were collected with media and spun at 3000 rpm for 5 minutes. The supernatant was aspirated and the well and the cells were washed with cold PBS once and combined for centrifugation again; the supernatant aspirated again. 200 ul pre-chilled RIPA lysis buffer (Boston BioProducts BP-115D) with protease/phosphatase inhibitor (Roche 05892791001/Roche 04906837001) was directly added into the tube to lyze the cells for 20 minutes on ice. The cell lysate were collected into EP tubes and spun at 13000 rpm for 20 minutes and 72 ul supernatant was transferred to a fresh EP tube containing 18 ul of 5× loading buffer (Beyotime Bio P0015) to make the loading samples. The samples were heated to 100° C. for 10 minutes and cooled to RT and microcentrifuged. 20 ul of samples were loaded onto SDS-PAGE gel (Novex, WG1402BOX) and the gel was run at 80 V for 20 minutes and 120 V for 1.5 hours. The samples were electrotransfer to a NC membrane using wet-transfer method with 250 mA for 2.5 hours. The membrane was blocked with LICOR blocking buffer (LI-COR, 927-50000) for 1 hour. The membrane was washed three times with TBST (CST #9997S), 5 minutes each. Incubation was performed with primary antibody prepared in blocking buffer with 0.1% Tween-20 (Solarbio, P8220) at 4° C. overnight (Anti-SMARCA2/BRM antibody (ab15597) 1:500; Anti-BRG1 antibody [EPR3912] (ab108318) 1:1000; Rabbit anti-Baf180 antibody [EPR15860] (Abcam, ab196022) 1:1000; mouse anti-beta-Actin (8H10D10) (CST #3700) 1:10000). The membrane was washed three times with TBST, 5 minutes each. Incubation with secondary antibody was performed for 1 hour at RT (anti-rabbit IgG (Licor, 926-32211) 1:5000; anti-mouse IgG (LI-COR, 926-68070) 1:5000). The membrane was washed three times with TBST, 5 minutes each and lastly the LiCOR was read.
The letter codes for SMARCA degradation potency (DC50) include: A (<100 nM), B (100-500 nM), C (501-1000 nM), and D (>1000 nM). The letter codes for the percentage of SMARCA degradation after 24 hours (Dmax %) include: A (>90% degradation), B (>70-90% degradation), C (50-70% degradation), and D (<50% degradation).
For orientation: Immunoblotting shows a protein as a band on a membrane.

Some results are limits rather than exact numbers.

Sequence of SMARCA2 (P51531 whole entry): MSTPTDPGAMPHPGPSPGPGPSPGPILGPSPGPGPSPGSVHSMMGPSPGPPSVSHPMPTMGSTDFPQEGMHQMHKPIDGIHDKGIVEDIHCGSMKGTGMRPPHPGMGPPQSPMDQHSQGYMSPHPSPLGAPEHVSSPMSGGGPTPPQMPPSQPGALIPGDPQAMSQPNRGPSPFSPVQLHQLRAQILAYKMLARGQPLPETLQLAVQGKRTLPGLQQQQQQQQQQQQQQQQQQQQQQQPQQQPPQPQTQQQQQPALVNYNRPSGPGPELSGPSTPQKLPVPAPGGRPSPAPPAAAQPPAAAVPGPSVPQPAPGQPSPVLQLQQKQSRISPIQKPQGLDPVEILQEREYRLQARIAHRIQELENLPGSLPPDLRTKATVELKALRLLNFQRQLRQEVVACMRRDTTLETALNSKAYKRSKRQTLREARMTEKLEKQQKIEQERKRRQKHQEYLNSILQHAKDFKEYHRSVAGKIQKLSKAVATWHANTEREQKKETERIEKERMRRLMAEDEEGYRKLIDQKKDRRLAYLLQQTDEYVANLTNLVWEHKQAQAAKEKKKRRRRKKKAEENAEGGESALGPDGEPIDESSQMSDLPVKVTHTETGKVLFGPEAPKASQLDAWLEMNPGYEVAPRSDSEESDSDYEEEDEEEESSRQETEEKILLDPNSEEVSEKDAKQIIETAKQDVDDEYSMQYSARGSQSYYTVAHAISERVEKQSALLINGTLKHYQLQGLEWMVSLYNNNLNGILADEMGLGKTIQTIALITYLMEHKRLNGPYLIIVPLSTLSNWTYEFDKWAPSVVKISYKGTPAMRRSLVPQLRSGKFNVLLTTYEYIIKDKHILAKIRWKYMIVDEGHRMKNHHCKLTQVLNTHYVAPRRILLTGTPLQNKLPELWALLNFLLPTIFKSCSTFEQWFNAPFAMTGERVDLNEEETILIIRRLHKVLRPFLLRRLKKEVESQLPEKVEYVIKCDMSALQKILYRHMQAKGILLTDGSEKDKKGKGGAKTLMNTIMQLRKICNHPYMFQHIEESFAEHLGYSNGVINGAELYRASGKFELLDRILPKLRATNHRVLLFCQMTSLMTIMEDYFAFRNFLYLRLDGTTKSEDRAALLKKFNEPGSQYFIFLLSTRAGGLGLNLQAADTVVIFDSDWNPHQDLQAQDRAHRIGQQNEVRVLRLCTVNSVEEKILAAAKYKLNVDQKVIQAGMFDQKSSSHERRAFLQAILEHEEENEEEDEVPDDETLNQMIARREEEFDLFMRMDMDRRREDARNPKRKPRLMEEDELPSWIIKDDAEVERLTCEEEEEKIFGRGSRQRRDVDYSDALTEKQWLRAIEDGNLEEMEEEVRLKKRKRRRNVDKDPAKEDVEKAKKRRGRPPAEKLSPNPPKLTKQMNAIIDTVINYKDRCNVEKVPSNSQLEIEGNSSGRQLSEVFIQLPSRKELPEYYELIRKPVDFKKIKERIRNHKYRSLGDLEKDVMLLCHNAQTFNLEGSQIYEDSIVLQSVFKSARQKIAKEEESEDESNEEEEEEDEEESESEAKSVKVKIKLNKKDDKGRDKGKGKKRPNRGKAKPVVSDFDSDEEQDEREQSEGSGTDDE

Regarding `Cc1cc(C(C(=O)N2C[C@H](O)C[C@H]2C(=O)NCc2ccc(-c3scnc3C)cc2)C(C)CCN2CCC(c3cnc(N4C5CCC4CN(c4cc(-c6ccccc6O)nnc4N)C5)nc3)CC2)on1` (single isomer, unassigned) [I-45], the Dmax is greater than 90% and the DC50 was less than 100 nM.
As to `Cc1cc(C(C(=O)N2C[C@H](O)C[C@H]2C(=O)NCc2ccc(-c3scnc3C)cc2)C(C)CCN2CCC(c3cnc(N4C5CCC4CN(c4cc(-c6ccccc6O)nnc4N)C5)nc3)CC2)on1` (single isomer, unassigned) [I-46], the “SMARCA2 MSD MV411 degradation 24 h: average Dmax %” value is “B (B (>70-90% degradation))” and the half-maximal degradation concentration (DC50) is less than 100 nM.
Consider `Cc1cc(C(C(=O)N2C[C@H](O)C[C@H]2C(=O)NCc2ccc(-c3scnc3C)cc2)C(C)CCN2CCC(c3cnc(N4C5CCC4CN(c4cc(-c6ccccc6O)nnc4N)C5)nc3)CC2)on1` (stereo partly drawn) [I-44, (2S,4R)-1-(5-(4-(2-(3-(3-amino-6-(2-hydroxyphenyl)pyridazin-4-yl)-3,8-diazabicyclo[3.2.1]octan-8-yl)pyrimidin-5-yl)piperidin-1-yl)-3-methyl-2-(3-methylisoxazol-5-yl)pentanoyl)-4-hydroxy-N-(4-(4-methylthiazol-5-yl)benzyl)pyrrolidine-2-carboxamide], for which the Dmax lay in the range of 70 to 90% and the DC50 is less than 100 nM.
In the same order, the values of `Cc1ncsc1-c1ccc(CNC(=O)[C@@H]2C[C@@H](O)CN2C(=O)[C@@H](c2cc(N3CCC(N4CCC(c5cnc(N6C7CCC6CN(c6cc(-c8ccccc8O)nnc6N)C7)nc5)CC4)CC3)no2)C(C)C)cc1` [I-49, (2S,4R)-1-(2-(3-(4-(2-(3-(3-amino-6-(2-hydroxyphenyl)pyridazin-4-yl)-3,8-diazabicyclo[3.2.1]octan-8-yl)pyrimidin-5-yl)-[1,4′-bipiperidin]-1′-yl)isoxazol-5-yl)-3-methylbutanoyl)-4-hydroxy-N-(4-(4-methylthiazol-5-yl)benzyl)pyrrolidine-2-carboxamide] are greater than 90% and less than 100 nM.
With `Cc1ncsc1-c1ccc(CNC(=O)[C@@H]2C[C@@H](O)CN2C(=O)[C@@H](c2cc(OCCCCN3CCC(c4cnc(N5C6CCC5CN(c5cc(-c7ccccc7O)nnc5N)C6)nc4)CC3)no2)C(C)C)cc1` [I-56], the “SMARCA2 MSD MV411 degradation 24 h: average Dmax %” value is “B (B (>70-90% degradation))” and the DC50 was less than 100 nM.
On to `Cc1ncsc1-c1ccc(CNC(=O)[C@@H]2C[C@@H](O)CN2C(=O)[C@H](c2cc(OCCCCN3CCC(c4cnc(N5C6CCC5CN(c5cc(-c7ccccc7O)nnc5N)C6)nc4)CC3)no2)C(C)C)cc1` [I-57], for which the Dmax was greater than 90% and the DC50 was less than 100 nM.
Take `Cc1ncsc1-c1ccc(CNC(=O)[C@@H]2C[C@@H](O)CN2C(=O)[C@@H](c2cc(N3CCC(CCN4CCC(c5cnc(N6C7CCC6CN(c6cc(-c8ccccc8O)nnc6N)C7)nc5)CC4)CC3)no2)C(C)C)cc1` [I-62, (2S,4R)-1-((2R)-2-(3-(4-(2-(4-(2-(3-(3-amino-6-(2-hydroxyphenyl)pyridazin-4-yl)-3,8-diazabicyclo[3.2.1]octan-8-yl)pyrimidin-5-yl)piperidin-1-yl)ethyl)piperidin-1-yl)isoxazol-5-yl)-3-methylbutanoyl)-4-hydroxy-N-(4-(4-methylthiazol-5-yl)benzyl)pyrrolidine-2-carboxamide]: the Dmax fell in the range of 50 to 70% and the DC50 was 100 to 500 nM.
In the same order, the values of `Cc1ncsc1-c1ccc(CNC(=O)[C@@H]2C[C@@H](O)CN2C(=O)[C@H](c2cc(N3CCC(CCN4CCC(c5cnc(N6C7CCC6CN(c6cc(-c8ccccc8O)nnc6N)C7)nc5)CC4)CC3)no2)C(C)C)cc1` [I-63, (2S,4R)-1-((2S)-2-(3-(4-(2-(4-(2-(3-(3-amino-6-(2-hydroxyphenyl)pyridazin-4-yl)-3,8-diazabicyclo[3.2.1]octan-8-yl)pyrimidin-5-yl)piperidin-1-yl)ethyl)piperidin-1-yl)isoxazol-5-yl)-3-methylbutanoyl)-4-hydroxy-N-(4-(4-methylthiazol-5-yl)benzyl)pyrrolidine-2-carboxamide] are greater than 90% and less than 100 nM.
For `Cc1ncsc1-c1ccc(CNC(=O)[C@@H]2C[C@@H](O)CN2C(=O)[C@@H](NC(=O)C2CC3(C2)CC(N2CCC(c4cnc(N5CCN(c6cc(-c7ccccc7O)nnc6N)CC5)nc4)CC2)C3)C(C)(C)C)cc1` (stereo partly drawn) [I-65, (2S,4R)-1-((S)-2-(6-(4-(2-(4-(3-amino-6-(2-hydroxyphenyl)pyridazin-4-yl)piperazin-1-yl)pyrimidin-5-yl)piperidin-1-yl)spiro[3.3]heptane-2-carboxamido)-3,3-dimethylbutanoyl)-4-hydroxy-N-(4-(4-methylthiazol-5-yl)benzyl)pyrrolidine-2-carboxamide], the Dmax fell in the range of 50 to 70% and the DC50 is less than 100 nM.
Regarding `Cc1ncsc1-c1ccc(CNC(=O)[C@@H]2C[C@@H](O)CN2C(=O)[C@@H](NC(=O)C2(F)CC2)C(C)(C)C)c(OC2CCC(N3CCC(c4cnc(N5C6CC[C@@H]5CN(c5cc(-c7ccccc7O)nnc5N)C6)nc4)CC3)CC2)c1` (stereo partly drawn) [I-71, (2S,4R)—N-(2-(((1r,4S)-4-(4-(2-(3-(3-amino-6-(2-hydroxyphenyl)pyridazin-4-yl)-3,8-diazabicyclo[3.2.1]octan-8-yl)pyrimidin-5-yl)piperidin-1-yl)cyclohexyl)oxy)-4-(4-methylthiazol-5-yl)benzyl)-1-((S)-2-(1-fluorocyclopropanecarboxamido)-3,3-dimethylbutanoyl)-4-hydroxypyrrolidine-2-carboxamide], the “SMARCA2 MSD MV411 degradation 24 h: average Dmax %” value is on record as “B (B (>70-90% degradation))” and the DC50 was less than 100 nM.
With `Cc1ncsc1-c1ccc(CNC(=O)[C@@H]2C[C@@H](O)CN2C(=O)[C@@H](NC(=O)C2(F)CC2)C(C)(C)C)c(OCCCCN2CCC(c3cnc(N4C5CCC4CN(c4cc(-c6ccccc6O)nnc4N)C5)nc3)CC2)c1` [I-74], the Dmax is 70 to 90% and the DC50 was less than 100 nM.
Regarding `Cc1ncsc1-c1ccc(CNC(=O)[C@@H]2C[C@@H](O)CN2C(=O)[C@@H](NC(=O)C2(F)CC2)C(C)(C)C)c(OCCCCCCN2CCC(c3cnc(N4C5CCC4CN(c4cc(-c6ccccc6O)nnc4N)C5)nc3)CC2)c1` [I-75, (2S,4R)—N-(2-((6-(4-(2-(3-(3-amino-6-(2-hydroxyphenyl)pyridazin-4-yl)-3,8-diazabicyclo[3.2.1]octan-8-yl)pyrimidin-5-yl)piperidin-1-yl)hexyl)oxy)-4-(4-methylthiazol-5-yl)benzyl)-1-((S)-2-(1-fluorocyclopropanecarboxamido)-3,3-dimethylbutanoyl)-4-hydroxypyrrolidine-2-carboxamide], the Dmax fell in the range of 70 to 90% and the DC50 was less than 100 nM.
In the same order, the values of `Cc1ncsc1-c1ccc(CNC(=O)[C@@H]2C[C@@H](O)CN2C(=O)[C@@H](NC(=O)CN2C3CCC2CN([C@H]2CC[C@@H](c4cnc(N5C6CCC5CN(c5cc(-c7ccccc7O)nnc5N)C6)nc4)CC2)C3)C(C)(C)C)cc1` [I-77, (2S,4R)-1-((2S)-2-(2-(3-((1s,4R)-4-(2-(3-(3-amino-6-(2-hydroxyphenyl)pyridazin-4-yl)-3,8-diazabicyclo[3.2.1]octan-8-yl)pyrimidin-5-yl)cyclohexyl)-3,8-diazabicyclo[3.2.1]octan-8-yl)acetamido)-3,3-dimethylbutanoyl)-4-hydroxy-N-(4-(4-methylthiazol-5-yl)benzyl)pyrrolidine-2-carboxamide] are 70 to 90% and less than 100 nM.

What is called Dmax is the largest share of the target that was removed. Usually DC50 stands for the concentration at which degradation of the target reaches its halfway point.
